Laboratory results reported in ChEMBL document CHEMBL1201862, “PubChem BioAssay data set” (2004).
The source made the active and inactive calls. Cut-off read from the data, not from the text of the source, for most assays here: actives have a measured EC50 and inactives only a lower limit.

Key:
[1] = luciferase reporter signal suppression in cells – H4 neuroglioma cells, luminescence, dose response (AID 1990); format: functional, cell-based
[2] = alpha-synuclein stem-loop luciferase translation blockers – H4 neuroglioma cells, luminescence, confirmation (AID 1988); format: functional, cell-based
[3] = Luminescence Cell-Based Dose Response HTS to Identify Inhibitors of 5'UTR Stem-Loop Driven Prion Protein mRNA Translation in H4 Neuroglioblastoma Cells. [Related pubchem assays: 1827 (Project Summary), 1813 (Primary HTS)]; format: functional
[4] = viability of uninfected HEp-2 cells – cell-based, HTS, cytotoxicity control for RSV inhibitor project, dose response (AID 2410); format: functional; settings: human respiratory syncytial virus
[5] = biological target: T1, Ubiquitin-conjugating enzyme E2 N (Homo sapiens, UniProt P61088); format: functional;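 note: Dose-response confirmation in a TR-FRET assay detecting UBC13-driven polyubiquitin chain formation, inhibition measured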
T1 sequence (P61088 whole entry): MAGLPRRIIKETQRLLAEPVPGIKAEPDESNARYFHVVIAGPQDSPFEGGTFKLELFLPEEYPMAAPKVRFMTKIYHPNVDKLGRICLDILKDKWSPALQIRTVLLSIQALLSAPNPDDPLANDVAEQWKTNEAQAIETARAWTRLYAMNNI

[6] = Luminescence Cell-Based Dose Confirmation HTS to Identify Inhibitors of Platelet Dense Granule Release. [Related pubchem assays: 1663 (Primary HTS), 1678 (Summary of Project)]; format: functional
[7] = biological target: Luciferin 4-monooxygenase (Photinus pyralis, UniProt P08659); test: inhibition of purified Photinus pyralis luciferase – biochemical, luminescence, dose response (AID 1891)
Luciferin 4-monooxygenase, sequence (P08659 whole entry): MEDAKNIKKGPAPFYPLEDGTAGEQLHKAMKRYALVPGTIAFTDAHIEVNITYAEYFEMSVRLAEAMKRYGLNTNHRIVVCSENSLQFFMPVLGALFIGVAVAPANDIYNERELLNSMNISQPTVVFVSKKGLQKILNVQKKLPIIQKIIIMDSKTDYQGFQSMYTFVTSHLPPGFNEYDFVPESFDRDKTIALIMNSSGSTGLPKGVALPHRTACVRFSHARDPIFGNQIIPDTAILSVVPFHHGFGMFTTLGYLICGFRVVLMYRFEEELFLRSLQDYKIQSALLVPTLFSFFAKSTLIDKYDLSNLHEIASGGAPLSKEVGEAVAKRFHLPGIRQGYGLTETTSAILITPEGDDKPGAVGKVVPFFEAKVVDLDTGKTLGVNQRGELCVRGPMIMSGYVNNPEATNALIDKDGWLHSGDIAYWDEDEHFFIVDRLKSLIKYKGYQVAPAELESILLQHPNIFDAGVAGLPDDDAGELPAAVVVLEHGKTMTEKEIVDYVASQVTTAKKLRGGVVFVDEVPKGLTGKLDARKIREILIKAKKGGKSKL

[8] = NIH-3T3 fibroblast cytotoxicity, dose response, cytotoxicity control, cell-based, fluorescence, Alamar Blue, secondary assay (AID 2327); format: functional;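 note: NIH-3T3 mouse fibroblasts cultured with fluconazole at 8 µg/mL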
[9] = fluconazole-exposed Candida albicans growth modulators – fluorescence, retest, confirmation (AID 2467); format: functional, cell-based
Streptococcus = test: GAS UMAA2166 growth inhibition – luminescence, BacTiterGlo, counter-screen for streptokinase expression inhibitor project, dose response (AID 1915); format: functional, organism-based;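 note: potency for reduction of bacterial viability or growth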
[10] = system: Streptococcus sp. 'group A'; test: Streptococcus pyogenes SK(-)GAS viability under kanamycin – luminescence, BacTiterGlo, confirmation, counter-screen for streptokinase expression inhibitor project, dose response (AID 1900); format: functional, organism-based
[11] = non-specific 3'UTR reporter inhibition in Clone20-Shn3RL – cell-based, Renilla luciferase, cherry-picked, counter-screen for Shn3 inhibitor project, dose response (AID 624133); format: functional
Streptokinase A = biological target: T2, Streptokinase A (Streptococcus pyogenes serotype M1, UniProt P10520); test: viability-normalized secreted streptokinase activity reduction – plasminogen activation absorbance, OD405, dose response (AID 1914); format: functional, Streptococcus pyogenes M1 GAS;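 note: secreted streptokinase activity via plasminogen activation per viability signal from cell pellet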
T2 sequence (P10520 whole entry): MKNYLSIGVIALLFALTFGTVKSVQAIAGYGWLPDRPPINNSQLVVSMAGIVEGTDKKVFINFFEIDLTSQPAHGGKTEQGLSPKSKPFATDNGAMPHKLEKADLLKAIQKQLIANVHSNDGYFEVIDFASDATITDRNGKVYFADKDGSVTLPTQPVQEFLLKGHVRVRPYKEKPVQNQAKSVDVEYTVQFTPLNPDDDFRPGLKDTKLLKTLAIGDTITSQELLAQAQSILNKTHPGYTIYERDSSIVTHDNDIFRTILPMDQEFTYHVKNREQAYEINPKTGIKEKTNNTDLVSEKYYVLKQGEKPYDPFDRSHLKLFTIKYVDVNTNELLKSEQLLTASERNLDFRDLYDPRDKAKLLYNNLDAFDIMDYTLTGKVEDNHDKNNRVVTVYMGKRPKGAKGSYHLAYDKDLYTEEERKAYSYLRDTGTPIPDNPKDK

[12] = reduction of Shn3 3'UTR-driven luciferase in osteoblasts – cell-based, Clone20 osteoblasts, firefly luciferase, cherry-picked, dose response (AID 624132); format: functional;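 note: firefly luciferase luminescence from reporter carrying the Shn3 3'UTR in osteoblasts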
[13] = loss of viability in HepG2 cells – cell-based, CellTiter-Glo, cherry-picked, cytotoxicity control for Shn3 inhibitor project, dose response (AID 624134); format: functional
[14] = biological target: T3, Heat shock factor protein 1 (Mus musculus, UniProt P38532); test: enhancement of HSF1-driven luciferase signal – cell-based, NIH3T3, luminescence, dose retest, confirmation (AID 435004); format: functional;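 note: stress induced by proteasome inhibitor MG132 added 30 min after compound; luciferase reporter driven by HSF1 response element in NIH3T3 cells; actives raise luminescence as potentiators of the MG132 stress response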
T3 sequence (P38532 whole entry): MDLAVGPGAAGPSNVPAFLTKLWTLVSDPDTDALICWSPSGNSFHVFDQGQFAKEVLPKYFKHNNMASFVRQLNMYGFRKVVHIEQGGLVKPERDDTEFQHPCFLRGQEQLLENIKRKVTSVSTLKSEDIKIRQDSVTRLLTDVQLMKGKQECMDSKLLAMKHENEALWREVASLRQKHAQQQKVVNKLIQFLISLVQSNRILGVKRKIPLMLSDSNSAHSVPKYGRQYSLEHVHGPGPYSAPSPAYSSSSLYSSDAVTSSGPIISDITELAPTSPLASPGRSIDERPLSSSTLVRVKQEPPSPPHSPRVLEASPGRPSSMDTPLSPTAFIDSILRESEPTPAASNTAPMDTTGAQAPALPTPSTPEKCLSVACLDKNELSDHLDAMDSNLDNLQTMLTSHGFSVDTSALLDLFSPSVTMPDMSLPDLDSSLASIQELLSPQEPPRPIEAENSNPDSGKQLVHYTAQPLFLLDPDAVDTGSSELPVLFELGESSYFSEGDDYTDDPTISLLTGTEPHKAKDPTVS

[15] = Luminescence Cell-Based Dose Retest to Confirm Inhibitors of Cancer Stem Cells. [Related pubchem assays (depositor defined):AID2717, AID2721]; format: functional; settings: Homo sapiens
[16] = Trypanosoma cruzi growth suppression in host cells – NIH3T3 host cells, beta-gal luminescence, confirmation (AID 2044); format: functional, cell-based;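 note: intracellular parasites grown in NIH/3T3 mouse fibroblasts as host cells; luminescent beta-galactosidase reporter signal from transgenic T. cruzi replicating inside host cells; inhibitors lower the luminescence signal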
[17] = NIH3T3 cell viability loss – ATP luminescence, mouse fibroblasts, counter-screen, dose response (AID 2010); format: functional, cell-based;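 note: cells exposed to compound for about 90 hours before reading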

SMILES: CCOC(=O)c1c(NC(=O)Cc2cccs2)sc(C(=O)N2CCCCC2)c1C
- EC50 [1]: 14.6 µM (active)
- EC50 [2]: > 120 µM (not active)
- EC50 [3]: 22.2 µM (active)

SMILES: Cc1ccc(-n2nc3c(=O)n(CC(=O)NCc4ccc(C)o4)nc(C)c3c2C)cc1
- EC50 [1]: 17.8 µM (active)
- EC50 [2]: > 120 µM (not active)
- EC50 [3]: 109 µM (active)

SMILES: CCc1ccc2oc(-c3cc(N)ccc3Cl)nc2c1
- CC50 [4]: 41.3 µM (active)

SMILES: C#CCOCCOCCOCCNc1nc(N2CCN(C(=O)[C@H]([C@@H](C)CC)n3cc(CCCCN)nn3)CC2)nc(N2CCN(C(=O)[C@H]([C@@H](C)CC)n3cc(CCCN=C(N)N)nn3)CC2)n1
- IC50 [5]: > 20 µM (inactive)

SMILES: Cc1ccc(NC(=O)c2sccc2C)nc1
- EC50 [6]: 5.98 µM (active)
- EC50 [7]: 13.9 µM (active)

SMILES: Cc1ccc(S(=O)(=O)N2CCCC2C(=O)O)cc1 (stereo unspecified)
- EC50 [6]: > 112 µM (not active)
- EC50 [7]: > 112 µM (not active)

SMILES: CCCC(=O)Nc1cc(C(=O)N2CCC3(CC2)OCCO3)ccc1S(=O)(=O)c1ccc(C)cc1
- EC50 [1]: > 120 µM (not active)
- EC50 [2]: > 120 µM (not active)
- EC50 [3]: > 120 µM (not active)

SMILES: Cc1nc2cc(NC(=O)Nc3cccc(F)c3)ccc2n1C
- EC50 [6]: 7.45 µM (active)
- EC50 [7]: 5.89 µM (active)

SMILES: CC1(C)Cc2nc3sc4c(SCC(=O)NCc5ccccc5)ncnc4c3cc2CO1
- EC50 [2]: 3.72 µM (active)
- EC50 [3]: > 120 µM (not active)

SMILES: Clc1ccc(-c2cs/c(=N\c3cccnc3)n2CCCn2ccnc2)cc1Cl
- CC50 [4]: 15.4 µM (active)

SMILES: CCC[C@@H](CN1CCC[C@H]1CN1C(N)=NC[C@H]1C(C)C)N1C[C@@H](Cc2ccccc2)N(CCCC2CCCC2)C1=N
- IC50 [5]: > 20 µM (inactive)

SMILES: Clc1cccc(-c2nn3c(Cn4cnc5ccccc54)nnc3s2)c1
- CC50 [4]: > 50 µM (active)

SMILES: O=C(CSc1nnc2ccccn12)NNC(=O)c1ccc([N+](=O)[O-])cc1
- EC50 [6]: > 112 µM (not active)
- EC50 [7]: > 112 µM (not active)

SMILES: Cc1ccsc1C(=O)Nc1nc2ccccc2[nH]1
- EC50 [6]: 4.71 µM (active)
- EC50 [7]: 2.67 µM (active)

SMILES: CNc1ccc(OC)cc1-n1cnc(-c2ccc([N+](=O)[O-])cc2)c1
- EC50 [8]: > 150 µM (inactive)
- EC50 [9]: > 38 µM (not active)

SMILES: Cc1ccccc1N=C(S)c1ccc2ccccc2n1
- EC50 [6]: > 112 µM (not active)
- EC50 [7]: > 112 µM (not active)

SMILES: CCOC(=O)C1=C(c2ccccc2)N=C(S)NC1c1cc([N+](=O)[O-])ccc1OC (stereo unspecified)
- CC50 [4]: > 50 µM (active)

SMILES: Cc1cc(-c2cc(C(=O)O)c3ccccc3n2)c(C)s1
- EC50 [8]: > 160 µM (inactive)
- EC50 [9]: 3.94 µM (active)

SMILES: N#C/C(=C(/O)c1ccco1)c1nc2ccccc2[nH]1
- EC50 [8]: > 150 µM (inactive)
- EC50 [9]: 4.11 µM (active)

SMILES: COc1ccc(-c2nn(-c3ccccc3)cc2C(=O)O)cc1
- EC50 [6]: > 112 µM (not active)
- EC50 [7]: > 112 µM (not active)

SMILES: Cc1ccc(Cn2ccc(=O)c(OCc3c(Cl)cccc3Cl)c2C)cc1
- EC50 (Streptococcus): > 150 µM (not active)
- EC50 [10]: 6.66 µM (active)
- AC50 [11]: 6.57 µM (active)
- EC50 (Streptokinase A): 13.7 µM (active)
- AC50 [12]: 6.11 µM (active)
- AC50 [13]: 60.6 µM (active)

SMILES: COc1cc(C(=O)OCc2cc(=O)c(O)co2)ccc1OC(F)F
- EC50 [8]: > 160 µM (inactive)
- EC50 [9]: > 38 µM (not active)

SMILES: CC1(C)CC(N/C=C2/C(=O)N(Cc3ccc4c(c3)OCO4)C(=O)c3ccccc32)CC(C)(C)N1
- EC50 [8]: > 160 µM (inactive)
- EC50 [9]: 5.68 µM (active)

SMILES: CO/C(O)=C1\C(C)=Nc2nnnn2C1c1cc(OC)ccc1OC (stereo unspecified)
- EC50 [1]: > 120 µM (not active)
- EC50 [2]: > 120 µM (not active)
- EC50 [3]: 18.3 µM (active)

SMILES: Cc1nc(SCC(=O)NCC2CCCO2)c2cc(-c3ccccc3)sc2n1 (stereo unspecified)
- CC50 [4]: 20.3 µM (active)

SMILES: COc1ccccc1-c1cc(C(=O)N2CCN(c3ccccc3)CC2)no1
- CC50 [4]: 31.9 µM (active)

SMILES: CC(C)CCn1nc(C(=O)Nc2nc3c(s2)CCCC3)c2ccccc2c1=O
- EC50 [1]: 16.9 µM (active)
- EC50 [2]: 12.8 µM (active)
- EC50 [3]: 12.9 µM (active)

SMILES: Nc1ncnc2c1ncn2[C@@H]1O[C@H](CO)C[C@H]1O [CORDYCEPIN]
- EC50 [8]: > 150 µM (inconclusive)
- EC50 [9]: 4.1 µM (active)

SMILES: Cc1cc(-c2ccc(NC(=O)[C@@H]3CCCC[C@@H]3C(=O)O)c(C)c2)ccc1NC(=O)[C@@H]1CCCC[C@@H]1C(=O)O
- CC50 [4]: 17.9 µM (active)

SMILES: CCc1nnc(NC(=O)Cn2ccc(C(F)(F)F)n2)s1
- EC50 [8]: > 150 µM (inactive)
- EC50 [9]: > 38 µM (not active)

SMILES: CCOc1cccc(-c2c(C(=O)N/N=C/c3ccco3)nnn2-c2nonc2N)c1
- EC50 [6]: 14.8 µM (active)
- EC50 [7]: > 112 µM (not active)

SMILES: Cc1ccccc1/C=N/NC1=NC(=O)CCS1
- CC50 [4]: 26.4 µM (active)

SMILES: CCCc1cc(O)nc(SCc2csc(-c3ccccc3)n2)n1
- EC50 [8]: > 160 µM (inactive)
- EC50 [9]: 2.81 µM (active)

SMILES: Nc1nc2sc3c(c2cc1C(=O)N1CCOCC1)CCCC3
- EC50 [6]: > 112 µM (not active)
- EC50 [7]: > 112 µM (not active)

SMILES: Cc1ccc(NNC(=O)c2cccs2)cc1Cl
- EC50 [8]: 29.6 µM (active)
- EC50 [9]: 1.62 µM (active)
- EC50 [14]: > 260 µM (inactive)
- AC50 [15]: 1.96 µM (active)

SMILES: COC(=O)c1c(-c2cccc3ccccc23)csc1NC(=O)Cc1ccc(OC)c(OC)c1
- EC50 [6]: > 112 µM (not active)
- EC50 [16]: 2.49 µM (active)
- AC50 [11]: 16.9 µM (active)
- EC50 [7]: > 112 µM (not active)
- EC50 [17]: 12.6 µM (active)
- AC50 [12]: 5.43 µM (active)
- AC50 [13]: > 70 µM (inactive)

SMILES: O=C(C1CCC(CNS(=O)(=O)c2cccs2)CC1)N1CCN(c2ccc(Cl)cc2)CC1 (stereo unspecified)
- AC50 [11]: 16 µM (active)
- AC50 [12]: 1.61 µM (active)
- AC50 [13]: 2.76 µM (active)
